The supplement of paper PMC7840683
± gives the standard deviation of the averaged measurements.

Tested on: HepaRG
Assay: LDH release cytotoxicity, % of total lysis control; higher = more cytotoxic
Details: 48 h
Method in brief: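 Percent cytotoxicity was scaled between on-plate vehicle and total lysis controls, then averaged over duplicate wells. The cells were single-lot HepaRG on collagen I-coated 96-well plates, exposed for 48 h to eight-point half-log test chemical series topping at 100 µM in serum-free induction medium with 0.5% DMSO. Total lysis wells got 0.1% Triton X, and LDH in 50 µL spent medium was read as resorufin fluorescence (CytoTox-ONE, Tecan Safire).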

CN1CCCC1c1cccnc1 (stereo not drawn) [Nicotine]
Details | LDH release cytotoxicity [%]
0.031623 µM | 0.0561 ± 0.16
0.1 µM | -2.6 ± 0.49
0.316228 µM | -2.47 ± 0.26
1 µM | -2.55 ± 0.14
3.16228 µM | -2.4 ± 0.23
10 µM | -2.95 ± 0.78
31.6228 µM | -1.31 ± 0.45
100 µM | 0.154 ± 0.86

O=C(O)c1cccnc1 [Nicotinic acid]
Details | LDH release cytotoxicity [%]
0.0327296 µM | -1.39 ± 0.94
0.1035 µM | -1.35 ± 0.33
0.327296 µM | -1.95 ± 0.85
1.035 µM | -1.67 ± 0.46
3.27296 µM | -1.83 ± 0.44
10.35 µM | -0.596 ± 0.74
32.729574 µM | -0.819 ± 0.39
103.5 µM | 0.214 ± 0.71

Clc1cccc(C(Cl)(Cl)Cl)n1 [Nitrapyrin]
Details | LDH release cytotoxicity [%]
0.031623 µM | -0.0337 ± 1.6
0.1 µM | -0.859 ± 0.33
0.316228 µM | -1.7 ± 1.4
1 µM | -2.43 ± 0.29
3.16228 µM | -2.02 ± 0.78
10 µM | -1.29 ± 0.76
31.6228 µM | -1.63 ± 1.3
100 µM | 1.2 ± 0.065

O=C(O)CN(CC(=O)O)CC(=O)O [Nitrilotriacetic acid]
Details | LDH release cytotoxicity [%]
0.03162 µM | -0.992 ± 1.1
0.1 µM | -2.54 ± 0.17
0.3162278 µM | -2.46 ± 0.55
1 µM | -2.18 ± 1.1
3.16228 µM | -1.64 ± 0.13
10 µM | -2.38 ± 0.72
31.6228 µM | -1.51 ± 0.34
100 µM | -0.286 ± 0.059

O=[N+]([O-])c1ccccc1 [Nitrobenzene]
Details | LDH release cytotoxicity [%]
0.03162 µM | -0.035 ± 0.65
0.1 µM | -0.746 ± 0.34
0.3162278 µM | -0.739 ± 0.36
1 µM | -0.928 ± 0.55
3.16228 µM | -1.24 ± 0.27
10 µM | -0.372 ± 0.35
31.6228 µM | -0.298 ± 1.3
100 µM | 1.13 ± 0.81

O=[N+]([O-])c1ccc(Oc2ccc(Cl)cc2Cl)cc1 [Nitrofen]
Details | LDH release cytotoxicity [%]
0.03162 µM | 0.322 ± 3
0.1 µM | -0.97 ± 0.56
0.3162278 µM | -0.303 ± 0.48
1 µM | -0.821 ± 0.57
3.16228 µM | -0.947 ± 1
10 µM | 0.734 ± 0.22
31.6228 µM | 0.996 ± 0.67
100 µM | 3.046 ± 0.0066

O=C1CN(N=Cc2ccc([N+](=O)[O-])o2)C(=O)N1 [Nitrofurantoin]
Details | LDH release cytotoxicity [%]
0.03162 µM | -0.977 ± 0.36
0.1 µM | -1.36 ± 0.74
0.3162278 µM | -1.01 ± 0.51
1 µM | -0.456 ± 1.2
3.16228 µM | -1.09 ± 0.89
10 µM | -0.861 ± 0.77
31.6228 µM | -0.189 ± 0.6
100 µM | 2.15 ± 0.92

NC(=O)N=NCc1ccc([N+](=O)[O-])o1 [Nitrofurazone]
Details | LDH release cytotoxicity [%]
0.03162 µM | -0.299 ± 0.59
0.1 µM | -1.51 ± 0.4
0.3162278 µM | -1.48 ± 0.51
1 µM | -1.87 ± 0.52
3.16228 µM | -1.76 ± 0.92
10 µM | -0.788 ± 0.29
31.6228 µM | -0.997 ± 0.33
100 µM | 0.128 ± 0.43

CCCCCCCCC(=O)O [Nonanoic acid]
Details | LDH release cytotoxicity [%]
0.03162 µM | -1.22 ± 1.1
0.1 µM | -1.24 ± 0.71
0.3162278 µM | -0.597 ± 0.11
1 µM | -1.56 ± 0.047
3.16228 µM | -2.05 ± 0.21
10 µM | -1.39 ± 0.62
31.6228 µM | -1.11 ± 0.22
100 µM | 3.09 ± 0.27

C#CC1(O)CCC2C3CCC4=CC(=O)CCC4C3CCC21C (stereo not drawn) [Norethindrone]
Details | LDH release cytotoxicity [%]
0.03162 µM | -0.43 ± 0.47
0.1 µM | 0.00115 ± 0.14
0.3162278 µM | -0.373 ± 0.45
1 µM | -0.047 ± 0.53
3.16228 µM | 0.727 ± 1
10 µM | 0.906 ± 1.7
31.6228 µM | 2.7 ± 1.3
100 µM | 2.69 ± 0.34

CN=C1C=NN(c2cccc(C(F)(F)F)c2)C(=O)C1Cl (stereo not drawn) [Norflurazon]
Details | LDH release cytotoxicity [%]
0.03162 µM | -0.275 ± 1.1
0.1 µM | -1.08 ± 0.48
0.3162278 µM | -0.0751 ± 2
1 µM | 0.0859 ± 2.5
3.16228 µM | -1.2 ± 0.27
10 µM | -0.411 ± 0.49
31.6228 µM | 0.0481 ± 1.5
100 µM | 1.81 ± 1.8

O=C(NC(=O)c1c(F)cccc1F)Nc1ccc(OC(F)(F)C(F)OC(F)(F)F)c(Cl)c1 (stereo not drawn) [Novaluron]
Details | LDH release cytotoxicity [%]
0.031623 µM | -0.704 ± 1.1
0.1 µM | -3.48 ± 0.26
0.316228 µM | -3.95 ± 0.86
1 µM | -4.4 ± 1.3
3.16228 µM | -3.9 ± 0.22
10 µM | -4.16 ± 0.54
31.6228 µM | -1.88 ± 0.94
100 µM | 4.68 ± 1.6

CCCCCCCCOc1ccc(C(=O)c2ccccc2)c(O)c1 [Octabenzone]
Details | LDH release cytotoxicity [%]
0.03162 µM | -0.784 ± 0.38
0.1 µM | -1.09 ± 0.34
0.3162278 µM | -0.164 ± 0.29
1 µM | 0.7228 ± 0.0064
3.16228 µM | 0.706 ± 0.87
10 µM | 0.678 ± 2.1
31.6228 µM | 1.22 ± 0.62
100 µM | 1.8 ± 0.62

CCCCCCCCCCCCCCCCCC(=O)O [Octadecanoic acid]
Details | LDH release cytotoxicity [%]
0.03162 µM | -0.507 ± 0.67
0.1 µM | -1.75 ± 1.4
0.3162278 µM | -1.54 ± 0.31
1 µM | -1.46 ± 0.77
3.16228 µM | -1.45 ± 0.023
10 µM | -0.538 ± 0.059
31.6228 µM | -0.0805 ± 0.49
100 µM | 0.581 ± 0.81

C[Si]1(C)O[Si](C)(C)O[Si](C)(C)O[Si](C)(C)O1 [Octamethylcyclotetrasiloxane]
Details | LDH release cytotoxicity [%]
0.03162 µM | -1.66 ± 0.14
0.1 µM | -2.19 ± 2.6
0.3162278 µM | -0.981 ± 0.89
1 µM | -1.15 ± 0.56
3.16228 µM | -1.27 ± 0.5
10 µM | -0.835 ± 0.65
31.6228 µM | -1.36 ± 1.4
100 µM | 1.7 ± 1.9

CCCCCCCC=O [Octanal]
Details | LDH release cytotoxicity [%]
0.03162 µM | -2.27 ± 0.13
0.1 µM | -2.49 ± 0.035
0.3162278 µM | -2.18 ± 1.1
1 µM | -1.59 ± 0.17
3.16228 µM | -1.99 ± 0.053
10 µM | -1.65 ± 0.19
31.6228 µM | -0.367 ± 0.076
100 µM | -0.293 ± 0.53

CCCCCCCC(=O)O [Octanoic acid]
Details | LDH release cytotoxicity [%]
0.03162 µM | -1.17 ± 0.13
0.1 µM | -1.02 ± 0.23
0.3162278 µM | -0.609 ± 0.43
1 µM | -0.537 ± 0.81
3.16228 µM | -0.391 ± 0.73
10 µM | -0.933 ± 1.1
31.6228 µM | -0.626 ± 0.1
100 µM | 0.799 ± 0.12

CCCCCCCCn1sccc1=O [Octhilinone]
Details | LDH release cytotoxicity [%]
0.0328877 µM | -1.41 ± 0.74
0.104 µM | -1.11 ± 0.18
0.328877 µM | -1.8 ± 0.29
1.04 µM | -2.06 ± 0.24
3.28877 µM | -1.28 ± 0.083
10.4 µM | -1.43 ± 0.041
32.8877 µM | -0.0918 ± 0.75
104 µM | 41.4 ± 8.2

CC(C)(C)CC(C)(C)c1ccc(O)c(-n2nc3ccccc3n2)c1 [Octrizole]
Details | LDH release cytotoxicity [%]
0.03162 µM | -2.72 ± 1.6
0.1 µM | -2.89 ± 0.71
0.3162278 µM | -2.68 ± 0.86
1 µM | -3.09 ± 0.49
3.16228 µM | -3.1 ± 0.38
10 µM | -2.49 ± 0.85
31.6228 µM | -1.9 ± 1.4
100 µM | -2.37 ± 0.56

CCCCCCCCOC(=O)c1cc(O)c(O)c(O)c1 [Octyl gallate]
Details | LDH release cytotoxicity [%]
0.03162 µM | -1.14 ± 0.66
0.1 µM | -0.159 ± 0.23
0.3162278 µM | -0.124 ± 0.33
1 µM | -0.776 ± 1.1
3.16228 µM | 0.219 ± 0.33
10 µM | -0.238 ± 0.52
31.6228 µM | -1.86 ± 0.4
100 µM | 2.05 ± 1.3

CCCCC(CC)CN1C(=O)C2C3C=CC(C3)C2C1=O (stereo not drawn) [Octylbicycloheptenedicarboximide]
Details | LDH release cytotoxicity [%]
0.03162 µM | 0.282 ± 1.1
0.1 µM | -0.366 ± 0.72
0.3162278 µM | -0.0268 ± 1.1
1 µM | -1.18 ± 0.3
3.16228 µM | -0.584 ± 0.76
10 µM | -0.999 ± 0.41
31.6228 µM | -1.23 ± 0.39
100 µM | 8.34 ± 1

CCCN(CCC)c1c([N+](=O)[O-])cc(S(N)(=O)=O)cc1[N+](=O)[O-] [Oryzalin]
Details | LDH release cytotoxicity [%]
0.03162 µM | -2.37 ± 0.48
0.1 µM | -2.04 ± 0.77
0.3162278 µM | -0.725 ± 1.5
1 µM | -1.89 ± 1.1
3.16228 µM | -2.11 ± 0.66
10 µM | -2.88 ± 0.44
31.6228 µM | -1.72 ± 0.24
100 µM | 77.1 ± 9.5

CC(C)Oc1cc(-n2nc(C(C)(C)C)oc2=O)c(Cl)cc1Cl [Oxadiazon]
Details | LDH release cytotoxicity [%]
0.03162 µM | -0.101 ± 1
0.1 µM | -0.564 ± 0.81
0.3162278 µM | -0.449 ± 1.2
1 µM | 0.329 ± 0.022
3.16228 µM | 0.576 ± 0.019
10 µM | 0.044 ± 0.0027
31.6228 µM | 0.449 ± 0.49
100 µM | 13.02 ± 0.12

CNC(=O)ON=C(SC)C(=O)N(C)C [Oxamyl]
Details | LDH release cytotoxicity [%]
0.03162 µM | -0.761 ± 0.13
0.1 µM | -0.802 ± 0.67
0.3162278 µM | -1.45 ± 0.73
1 µM | -1.85 ± 0.63
3.16228 µM | -1.65 ± 0.22
10 µM | -1.06 ± 0.34
31.6228 µM | -1.05 ± 0.48
100 µM | -1.42 ± 0.44

CCOc1cc(Oc2ccc(C(F)(F)F)cc2Cl)ccc1[N+](=O)[O-] [Oxyfluorfen]
Details | LDH release cytotoxicity [%]
0.03162 µM | -0.516 ± 0.33
0.1 µM | 0.229 ± 1.1
0.3162278 µM | -0.848 ± 0.08
1 µM | -0.859 ± 0.59
3.16228 µM | -0.159 ± 0.1
10 µM | -0.932 ± 0.39
31.6228 µM | -2.53 ± 0.26
100 µM | -1.47 ± 0.42

CN(C)C1C(=O)C(C(N)=O)C(=O)C2(O)C(=O)C3C(=O)c4c(O)cccc4C(C)(O)C3C(O)C12 (stereo not drawn) [Oxytetracycline dihydrate]
Details | LDH release cytotoxicity [%]
0.03162 µM | -2.54 ± 0.23
0.1 µM | -1.62 ± 0.88
0.3162278 µM | -1.71 ± 0.26
1 µM | -1.95 ± 0.25
3.16228 µM | -1.59 ± 0.099
10 µM | -2.1 ± 0.93
31.6228 µM | -3.27 ± 0.36
100 µM | -4 ± 0.13
